The record followed here is PubChem BioAssay (NCI).

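The compound was tested at five concentrations on cells cultured in 96-well plates, with a 48-hour exposure period. GI50 is the concentration that inhibits growth by half. TGI denotes the concentration required for complete inhibition of growth.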

Common to all, as to test: growth of human tumour cells (NCI), 48 h
The subject of assay [1] is COLO 205 colon.
In assay [2] the test system is EKVX NSCLC.
Assay [3] concerns MALME-3M melanoma.
Assay [4] concerns OVCAR-3 ovarian.
Assay [5] concerns T-47D breast.
Assay [6] concerns 786-0 renal.
For assay [7], the system named is A549 NSCLC.
Assay [8] deals with UO-31 renal.
The subject of assay [9] is CCRF-CEM leukemia.
In assay [10] the test system is MDA-MB-231 breast.

Turning to `CC[N+]1(C)CCC(O)(/C=C/c2ccc(Cl)c(Cl)c2)C(C(=O)/C=C/c2ccc(Cl)c(Cl)c2)C1` (configuration not stated), the TGI came to 10.2 µM in assay [1]; 23.3 µM in [2]; 4.6 µM in assay [3]; 10.6 µM in assay [4]; 4.87 µM in assay [5]; 3.46 µM in assay [6]. In addition, the TGI in assay [7] was determined as 15.7 µM; in [8], 3.67 µM.
For the compound `C#Cc1ccccc1C(=O)OC`, the TGI in assay [1], in [2], in assay [3], in [9], in [4] and in assay [7] was greater than 100 µM each time. The TGI in assay [8] was greater than 100 µM.
For the compound `Cc1cc(=O)[nH]c(S(=O)(=O)NC(=S)Nc2ccc(Br)cc2)n1`, the TGI in assay [1], in assay [2], in [3], in [4], in [5] and in [10] was greater than 100 µM each time. Further, the TGI in assay [6] and in assay [8] was greater than 100 µM throughout.
`C=C(Cl)C(=C)CCC(Cl)C(C)(C)Cl` (configuration not stated): the TGI in assay [1], in [2], in [3], in [9], in [4] and in assay [10] was greater than 100 µM each time. Further, the TGI in assay [6], in assay [7] and in assay [8] was greater than 100 µM in each case.
Take `CN1C(C(=O)Nc2ccccn2)=C(O)c2ccccc2S1(=O)=O`: the TGI in [1], in assay [2], in assay [3], in [9], in assay [4] and in [5] was greater than 100 µM in each case. Moreover, the TGI in assay [6], in [7] and in assay [8] was greater than 100 µM throughout.
`CC1Oc2c(c(O)cc3oc(=O)cc(-c4ccccc4)c23)C(=O)C1C` (configuration not stated): the TGI in assay [1], in assay [2], in assay [3], in assay [9], in [4] and in [8] was greater than 100 µM in each case.
Regarding `O=[N+]([O-])c1ccc(-c2nc3ccccc3o2)cc1`, the TGI in [1], in assay [2], in assay [3], in assay [9], in assay [4] and in assay [5] was greater than 100 µM in each case. The TGI in [6], in assay [7] and in assay [8] was greater than 100 µM in each case.
For `O.O=[Se](=O)(O)O.[NH-]C1CCCCC1[NH-].[Pt+2]` (configuration not stated), the GI50 was 5.82 µM in [1]; 36.1 µM in assay [2]; 8.23 µM in assay [3]; 9.8 µM in assay [9]; 21.2 µM in assay [4]; 5.26 µM in [7]. Further, in assay [8], the GI50 is 7.66 µM. Also, the TGI in [1] was 67.8 µM; in [2], greater than 100 µM; in assay [3] it was 44 µM; in [9], greater than 100 µM; in [4] it was greater than 81.9 µM; in assay [7], greater than 100 µM. Besides, the TGI in assay [8] was greater than 68 µM.
Consider `CC(C)(CN1CCCCC1)C(=O)CC(SCCS(=O)(=O)O)c1ccc(Cl)c(Cl)c1` (configuration not stated), for which the TGI turned out to be 7.25 µM in [1]; 18 µM in assay [2]; 22.1 µM in [3]; 4.69 µM in assay [9]; 6.97 µM in assay [4]; 4.82 µM in assay [10]. Besides, the TGI in [6] was 3.4 µM; in assay [7] it was 21 µM; in assay [8], 16.4 µM.
Consider `C=C1C[C@]23CC[C@@H]4C(CO)(CO)CC(=O)C[C@]4(C)[C@@H]2C(O)C[C@H]1C3` (some centres not stated), for which the TGI in assay [1], in assay [2], in [3], in [9], in assay [4] and in assay [10] was greater than 100 µM throughout. Further, the TGI in [6], in assay [7] and in [8] was greater than 100 µM throughout.
Regarding `C=C1C(=O)OC2C1CC1OC2C(C)CCC/C(C)=C\CCC1(C)O` (configuration not stated), the TGI in assay [1] was 58.1 µM; in assay [2] it was 79.4 µM; in assay [3] it was 80.6 µM; in assay [9], 22.2 µM; in [4] it was 32.6 µM; in assay [7], greater than 78.3 µM. The compound also showed a TGI in assay [8] of 79.6 µM.
For the compound `Cc1ccc(N=Nc2cc(=O)[nH]c(=O)[nH]2)cc1C`, the TGI in assay [1] is 19.9 µM; in assay [2], 34.7 µM; in assay [3] it was 27.5 µM; in assay [9], greater than 100 µM; in assay [4] it was 4.19 µM; in [10], 24.2 µM. Also, the TGI in assay [6] was determined as 8.69 µM; in assay [7], 34.7 µM; in assay [8] it was 32.6 µM.
Turning to `COc1ccc(/C(Cl)=C(\C=O)c2ccc(Cl)cc2)cc1`, the TGI in assay [2] was greater than 100 µM; in assay [3] it was greater than 100 µM; in assay [9], 11.4 µM; in assay [4], 32.1 µM; in [7], greater than 100 µM; in assay [8], 33.1 µM.
With `Cc1ccc(Oc2cc(C)ccc2P(=O)(O)O)cc1`, the TGI in [1], in [2], in assay [9], in assay [4], in [10] and in [6] was greater than 100 µM in each case. In addition, the TGI in [7] and in assay [8] was greater than 100 µM throughout.
For the compound `CCC[CH2][Ge]([CH2]CCC)([CH2]CCC)[O]C(=O)CCl`, the GI50 was 10.4 µM in assay [1]; 1.18 µM in assay [2]; 1.14 µM in assay [3]; 0.406 µM in assay [9]; 2.33 µM in assay [4]; 1.01 µM in assay [7]. Moreover, the GI50 in assay [8] was 2.28 µM. The TGI in assay [1] is 24 µM; in [2], 16.2 µM; in assay [3] it was 12.5 µM; in assay [9], 17.9 µM; in assay [4], 16.3 µM; in [7] it was 17.3 µM. The compound also displayed a TGI in [8] of 15.6 µM.
